Experimental data: article PMC9977845 (2023)
One block for each compound: values may come before it.

Columns and labels:
D1 (DNA, duplex) CCCGGG = assay: 1H NMR; conditions: Na+ 10 mM (NaCl); 2.5 mM cacodylate pH 5.0; intercalation at CG/CG
[1] = tested on: D4 (DNA, duplex) GGGTACCC; assay: 1H NMR; conditions: Na+ 10 mM (NaCl), 2.5 mM cacodylate pH 5.0
[2] = tested on: D7 (DNA, duplex) GTACGTAC; assay: 1H NMR; conditions: Na+ 10 mM (NaCl); 2.5 mM cacodylate pH 5.0; intercalation at TA/TA
[3] = tested on: D8 (DNA, duplex) CTAGCTAG; assay: 1H NMR; conditions: Na+ 10 mM (NaCl); 2.5 mM cacodylate pH 5.0; intercalation at TA/TA
[4] = tested on: B3; D2; d(CGATATCG)2 (DNA, duplex) CGATATCG; assay: 2D NMR (NOESY) and restrained MD structure; conditions: Na+ 10 mM (NaCl); 2.5 mM cacodylate pH 5.0; 5 °C; intercalation at TA/TA
[5] = tested on: D3; d(CCCTAGGG)2 (DNA, duplex) CCCTAGGG; assay: 2D NMR (NOESY) and restrained MD structure; conditions: Na+ 10 mM (NaCl); 2.5 mM cacodylate pH 5.0; 5 °C; intercalation at TA/TA
[6] = tested on: B1; d(CGGTACCG)2 (DNA, duplex) CGGTACCG; assay: UV-VIS titration, chemometric (PCA) Scatchard analysis; conditions: Na+ 10 mM (NaCl); 2.5 mM cacodylate pH 5.0; 0.01 mM ligand; microscopic constant
[7] = tested on: B2; d(CGCTAGCG)2 (DNA, duplex) CGCTAGCG; assay: as above; conditions: Na+ 10 mM (NaCl); 2.5 mM cacodylate pH 5.0; 0.01 mM ligand; microscopic constant
[8] = tested on: B3; D2; d(CGATATCG)2 (DNA, duplex) CGATATCG; assay: as above; conditions: Na+ 10 mM (NaCl); 2.5 mM cacodylate pH 5.0; 0.01 mM ligand; microscopic constant
[9] = tested on: B3; D2; d(CGATATCG)2 (DNA, duplex) CGATATCG; assay: 1H NMR titration; conditions: Na+ 10 mM (NaCl), 2.5 mM cacodylate pH 5.0, unspecific
[10] = tested on: B2; d(CGCTAGCG)2 (DNA, duplex) CGCTAGCG; assay: 2D NMR (NOESY) and restrained MD structure; conditions: Na+ 10 mM (NaCl); 2.5 mM cacodylate pH 5.0; 5 °C; intercalation at TA/TA
[11] = tested on: B4; d(CGTTAACG)2 (DNA, duplex) CGTTAACG; assay: UV-VIS titration, chemometric (PCA) Scatchard analysis; conditions: Na+ 10 mM (NaCl); 2.5 mM cacodylate pH 5.0; 0.01 mM ligand; microscopic constant
[12] = unspecific, no intercalation site, duplex:ligand 1:1.5

- binding (D1 (DNA, duplex) CCCGGG): yes
- binding ([1]; intercalation at TA/TA): yes
- binding [2]: yes
- binding [3]: yes
- Dissociation constant [6]: 0.524 µM
- Dissociation constant [7]: 0.260 µM
- Dissociation constant [8]: 0.156 µM
Structure (SMILES): CCN(CC)CCNc1ccc2ncn3c4ccc(O)cc4c(=O)c1c23
- binding [4]: yes
- binding [5]: yes

- binding [1, 12]: weak
- binding ([9]; presumably minor groove at centre, no defined intercalation): weak
Structure (SMILES): CN(C)CCCNc1c2ccccc2nc2cccc([N+](=O)[O-])c12

- Dissociation constant [6]: 0.145 µM
- Dissociation constant [7]: 0.227 µM
- Dissociation constant [8]: 0.608 µM
- Dissociation constant [11]: 0.248 µM
Structure (SMILES): CN(C)CCCNc1ccc2nnn3c4ccc(O)cc4c(=O)c1c23
- binding [10]: yes

- binding [1, 12]: weak
- binding ([9]; weaker than C-283): weak
Structure (SMILES): Cc1ccc([N+](=O)[O-])c2c(NCCO)c3ccccc3nc12
